Measurements reported in ChEMBL document CHEMBL1909046, “DrugMatrix in vitro pharmacology data”.

Columns and labels:
[1] = DRUGMATRIX: Potassium Channel [KATP] radioligand binding (ligand: [3H] Glyburide); format: cell membranes, Membrane; details: hit-t15; Not Active = under 50% inhibition at 10 µM
[2] = molecular target: T1, Neuropeptide Y receptor type 2 (Homo sapiens, UniProt P49146); format: cell membranes, Membrane; details: kan-ts; also: in other assays of this panel Not Active means under 50% inhibition at 10 µM
T1 sequence (P49146 whole entry): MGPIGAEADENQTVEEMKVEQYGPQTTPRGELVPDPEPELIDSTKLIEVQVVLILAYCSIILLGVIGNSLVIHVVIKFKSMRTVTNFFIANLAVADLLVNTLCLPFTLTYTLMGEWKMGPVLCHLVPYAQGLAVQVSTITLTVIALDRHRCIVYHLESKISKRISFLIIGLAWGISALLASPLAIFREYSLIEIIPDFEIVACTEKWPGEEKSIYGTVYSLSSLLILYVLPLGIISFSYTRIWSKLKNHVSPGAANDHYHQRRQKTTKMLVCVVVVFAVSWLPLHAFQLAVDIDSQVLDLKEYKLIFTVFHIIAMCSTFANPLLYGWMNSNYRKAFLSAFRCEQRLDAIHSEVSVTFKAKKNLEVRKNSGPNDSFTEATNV

[3] = molecular target: T2, Caspase-1 (Homo sapiens, UniProt P29466); set-up: species or system Escherichia coli;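 also: Caspase-1 enzyme inhibition assay with a peptide substrate; in other assays of this panel Not Active means under 50% inhibition at 10 µM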
T2 sequence (P29466 whole entry): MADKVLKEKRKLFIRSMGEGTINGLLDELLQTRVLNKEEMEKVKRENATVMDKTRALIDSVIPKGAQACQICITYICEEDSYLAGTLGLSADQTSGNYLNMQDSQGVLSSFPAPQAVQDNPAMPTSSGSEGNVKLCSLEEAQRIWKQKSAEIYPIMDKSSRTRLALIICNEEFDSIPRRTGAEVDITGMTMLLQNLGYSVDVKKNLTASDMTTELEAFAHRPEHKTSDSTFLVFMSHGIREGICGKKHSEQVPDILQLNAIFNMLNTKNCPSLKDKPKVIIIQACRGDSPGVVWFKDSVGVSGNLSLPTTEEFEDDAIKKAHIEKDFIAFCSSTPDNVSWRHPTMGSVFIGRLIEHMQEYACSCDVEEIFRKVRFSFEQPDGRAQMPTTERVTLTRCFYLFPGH

[4] = DRUGMATRIX: GABAA, Muscimol, Central radioligand binding (ligand: [3H] Muscimol); format: cell membranes, Rattus norvegicus, Wistar, Brain, Membrane; details: Not Active = under 50% inhibition at 10 µM
[5] = molecular target: Insulin receptor (Rattus norvegicus, UniProt P15127); format: cell membranes, Wistar, Liver, Membrane; also: in other assays of this panel Not Active means under 50% inhibition at 10 µM
[6] = molecular target: Delta-type opioid receptor (Homo sapiens, UniProt P41143); format: cell membranes, HEK293, Membrane; details: hek293; also: in other assays of this panel Not Active means under 50% inhibition at 10 µM
[7] = molecular target: T3, Alpha-2C adrenergic receptor (Homo sapiens, UniProt P18825); experiment: DRUGMATRIX: Adrenergic Alpha-2C radioligand binding (ligand: [3H] MK-912); format: cell membranes, Sf9, Membrane
T3 sequence (P18825 whole entry): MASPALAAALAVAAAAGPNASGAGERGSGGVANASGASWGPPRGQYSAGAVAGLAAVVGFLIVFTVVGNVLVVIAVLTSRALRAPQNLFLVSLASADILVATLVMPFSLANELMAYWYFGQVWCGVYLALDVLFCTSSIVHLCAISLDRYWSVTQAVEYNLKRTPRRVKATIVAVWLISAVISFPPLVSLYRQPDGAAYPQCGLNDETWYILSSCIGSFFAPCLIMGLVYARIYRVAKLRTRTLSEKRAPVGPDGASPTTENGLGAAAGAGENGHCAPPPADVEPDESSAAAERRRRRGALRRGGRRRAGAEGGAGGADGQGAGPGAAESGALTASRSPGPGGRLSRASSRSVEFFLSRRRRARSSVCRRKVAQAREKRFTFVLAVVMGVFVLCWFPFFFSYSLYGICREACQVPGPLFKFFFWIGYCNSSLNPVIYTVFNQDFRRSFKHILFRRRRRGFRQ

[8] = molecular target: T4, Vasoactive intestinal polypeptide receptor 1 (Homo sapiens, UniProt P32241); format: cell membranes, Membrane; details: ht-29; also: in other assays of this panel Not Active means under 50% inhibition at 10 µM
T4 sequence (P32241 whole entry): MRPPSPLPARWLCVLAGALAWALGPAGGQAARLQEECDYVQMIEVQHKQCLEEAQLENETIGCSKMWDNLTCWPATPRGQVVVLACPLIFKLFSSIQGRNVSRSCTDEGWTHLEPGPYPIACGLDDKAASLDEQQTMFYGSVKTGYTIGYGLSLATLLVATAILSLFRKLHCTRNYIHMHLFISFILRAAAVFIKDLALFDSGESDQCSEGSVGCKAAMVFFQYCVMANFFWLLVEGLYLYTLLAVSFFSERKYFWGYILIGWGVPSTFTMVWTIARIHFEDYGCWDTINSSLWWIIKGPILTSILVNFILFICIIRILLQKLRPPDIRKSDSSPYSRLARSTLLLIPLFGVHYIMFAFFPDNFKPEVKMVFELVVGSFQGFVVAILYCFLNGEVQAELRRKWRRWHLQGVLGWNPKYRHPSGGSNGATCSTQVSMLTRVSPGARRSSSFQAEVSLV

Sequence of Delta-type opioid receptor (P41143 whole entry): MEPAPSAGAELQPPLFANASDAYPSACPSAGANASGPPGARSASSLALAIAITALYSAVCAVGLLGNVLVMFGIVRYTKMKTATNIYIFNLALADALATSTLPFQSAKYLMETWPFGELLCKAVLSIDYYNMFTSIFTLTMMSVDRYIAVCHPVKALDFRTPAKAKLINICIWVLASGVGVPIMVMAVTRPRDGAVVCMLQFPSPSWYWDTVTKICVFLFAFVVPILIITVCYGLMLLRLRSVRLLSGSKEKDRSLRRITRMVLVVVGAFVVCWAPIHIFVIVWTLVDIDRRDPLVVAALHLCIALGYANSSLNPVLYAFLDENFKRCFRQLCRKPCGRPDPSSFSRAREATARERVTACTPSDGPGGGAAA
Sequence of Insulin receptor (P15127 27-759 limits assumed): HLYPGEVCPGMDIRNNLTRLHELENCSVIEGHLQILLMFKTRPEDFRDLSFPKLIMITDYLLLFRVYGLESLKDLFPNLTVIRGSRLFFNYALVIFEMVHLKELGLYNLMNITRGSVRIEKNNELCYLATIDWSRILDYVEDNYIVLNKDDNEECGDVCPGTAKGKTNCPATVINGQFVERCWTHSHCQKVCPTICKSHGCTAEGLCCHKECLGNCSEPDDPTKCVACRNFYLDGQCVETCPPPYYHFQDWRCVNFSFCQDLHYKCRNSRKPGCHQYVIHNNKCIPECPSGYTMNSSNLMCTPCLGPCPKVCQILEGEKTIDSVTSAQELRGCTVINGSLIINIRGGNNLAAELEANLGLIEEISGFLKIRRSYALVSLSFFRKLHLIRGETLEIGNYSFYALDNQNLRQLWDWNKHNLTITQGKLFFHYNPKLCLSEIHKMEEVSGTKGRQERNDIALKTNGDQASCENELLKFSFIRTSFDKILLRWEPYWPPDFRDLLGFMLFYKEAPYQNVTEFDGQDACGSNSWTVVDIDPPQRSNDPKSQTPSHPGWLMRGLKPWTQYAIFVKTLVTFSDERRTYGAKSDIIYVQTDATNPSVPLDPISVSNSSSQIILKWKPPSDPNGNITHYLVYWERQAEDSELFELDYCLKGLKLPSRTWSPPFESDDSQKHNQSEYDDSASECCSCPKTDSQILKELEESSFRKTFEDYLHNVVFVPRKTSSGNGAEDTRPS
Sequence of Insulin receptor (P15127 764-1383 limits assumed): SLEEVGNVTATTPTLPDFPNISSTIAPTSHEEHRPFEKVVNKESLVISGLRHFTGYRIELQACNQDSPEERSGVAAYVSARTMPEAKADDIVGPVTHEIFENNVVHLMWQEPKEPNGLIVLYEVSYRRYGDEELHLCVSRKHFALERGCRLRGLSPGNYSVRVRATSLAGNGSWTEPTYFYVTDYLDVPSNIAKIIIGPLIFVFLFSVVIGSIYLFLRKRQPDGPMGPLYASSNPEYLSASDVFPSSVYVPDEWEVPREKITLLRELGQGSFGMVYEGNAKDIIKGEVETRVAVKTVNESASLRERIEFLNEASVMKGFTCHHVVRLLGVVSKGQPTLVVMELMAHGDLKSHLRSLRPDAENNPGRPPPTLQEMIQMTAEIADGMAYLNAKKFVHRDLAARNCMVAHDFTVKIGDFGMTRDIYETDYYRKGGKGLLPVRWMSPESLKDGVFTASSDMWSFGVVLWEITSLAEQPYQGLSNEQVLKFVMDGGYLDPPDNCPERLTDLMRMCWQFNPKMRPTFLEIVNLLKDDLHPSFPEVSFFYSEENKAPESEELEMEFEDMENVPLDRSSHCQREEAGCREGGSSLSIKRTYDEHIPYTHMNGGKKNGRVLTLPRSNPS

Compound | IC50 [1] | Ki [1] | IC50 [2] | IC50 [3] | IC50 [4] | Ki [4] | IC50 [5] | IC50 [6] | IC50 ([7]; sf9) | IC50 [8] | IC50 ([7]; read-out: IC50) | Ki ([7]; read-out: Ki)
CC(C)(C)NCC(O)c1cc(Cl)c(N)c(Cl)c1 (configuration not stated) [CLENBUTEROL] | Not Active | Not Active | Not Active | Not Active | Not Active | Not Active | Not Active | Not Active | Not Active | Not Active |  | 
CC(O)CO (configuration not stated) [PROPYLENE GLYCOL] | Not Active | Not Active | Not Active | Not Active | Not Active | Not Active | Not Active | Not Active | Not Active | Not Active |  | 
CC1Cc2ccccc2N1NC(=O)c1ccc(Cl)c(S(N)(=O)=O)c1 (configuration not stated) [INDAPAMIDE] | Not Active | Not Active | Not Active | Not Active | Not Active | Not Active | Not Active | Not Active | Not Active | Not Active |  | 
c1ccc(Nc2ccc(Nc3ccccc3)cc2)cc1 | Not Active | Not Active | Not Active | Not Active | Not Active | Not Active | Not Active | Not Active | Not Active | Not Active |  | 
COc1cc2nc(N3CCN(C(=O)C4COc5ccccc5O4)CC3)nc(N)c2cc1OC (configuration not stated) [DOXAZOSIN] | Not Active | Not Active | Not Active | Not Active | Not Active | Not Active | Not Active | Not Active | Not Active | Not Active |  | 
CCOc1ccc(NC(C)=O)cc1 [PHENACETIN] | Not Active | Not Active | Not Active | Not Active | Not Active | Not Active | Not Active | Not Active | Not Active | Not Active |  | 
CN(C)CCCN1c2ccccc2Sc2ccc(Cl)cc21 [CHLORPROMAZINE] | Not Active | Not Active | Not Active | Not Active | Not Active | Not Active | Not Active |  |  | Not Active |  | 
CC(C)[C@H]1C(=O)N2CCC[C@H]2[C@]2(O)O[C@](NC(=O)[C@@H]3C=C4c5cccc6[nH]cc(c56)C[C@H]4N(C)C3)(C(C)C)C(=O)N12 [ERGOCORNINE] | Not Active | Not Active | Not Active | Not Active | Not Active | Not Active | Not Active | Not Active |  | Not Active | 17 nM | 2.41 nM
CC(C)(Oc1ccc(Cl)cc1)C(=O)O [CLOFIBRIC ACID] | Not Active | Not Active | Not Active | Not Active | Not Active | Not Active | Not Active | Not Active | Not Active | Not Active |  | 
CCC(C)n1ncn(-c2ccc(N3CCN(c4ccc(OCC5COC(Cn6cncn6)(c6ccc(Cl)cc6Cl)O5)cc4)CC3)cc2)c1=O (configuration not stated) [ITRACONAZOLE] | Not Active | Not Active | Not Active | Not Active | Not Active | Not Active | Not Active | Not Active | Not Active | Not Active |  | 
O=c1oc2ccccc2c(O)c1Cc1c(O)c2ccccc2oc1=O [DICUMAROL] | Not Active | Not Active | Not Active | Not Active | Not Active | Not Active | Not Active | Not Active | Not Active | Not Active |  | 
Cc1onc(O)c1CC(N)C(=O)O (racemic) [(R,S)-AMPA] | Not Active | Not Active | Not Active | Not Active | Not Active | Not Active | Not Active | Not Active | Not Active | Not Active |  | 
CC1=C2C(=CO[C@H](C)[C@H]2C)C(O)=C(C(=O)O)C1=O [CITRININ] | Not Active | Not Active | Not Active | Not Active | Not Active | Not Active | Not Active | Not Active | Not Active | Not Active |  | 
Nc1nc2c(ncn2COCCO)c(=O)[nH]1 [ACYCLOVIR] | Not Active | Not Active | Not Active | Not Active | Not Active | Not Active | Not Active | Not Active | Not Active | Not Active |  | 
CCOC(=O)C1=C(COCCN)NC(C)=C(C(=O)OC)C1c1ccccc1Cl (configuration not stated) [AMLODIPINE] | Not Active | Not Active | Not Active | Not Active | Not Active | Not Active | Not Active | Not Active |  | Not Active |  | 
O=C1CC[C@@H](N2C(=O)c3ccccc3C2=O)C(=O)N1 | Not Active | Not Active | Not Active | Not Active | Not Active | Not Active | Not Active | Not Active | Not Active | Not Active |  | 
Cc1ccc(N(CC2=NCCN2)c2cccc(O)c2)cc1 [PHENTOLAMINE] | Not Active | Not Active | Not Active | Not Active | Not Active | Not Active | Not Active | Not Active |  | Not Active |  | 
CC(C)C(Br)C(=O)NC(N)=O (configuration not stated) [BROMISOVALUM] | Not Active | Not Active | Not Active | Not Active | Not Active | Not Active | Not Active | Not Active | Not Active | Not Active |  | 
Cc1ccccc1N1C(=O)c2cc(S(N)(=O)=O)c(Cl)cc2NC1C (configuration not stated) [METOLAZONE] | Not Active | Not Active | Not Active | Not Active | Not Active | Not Active | Not Active | Not Active | Not Active | Not Active |  | 
C1CCC(C(CC2CCCCN2)C2CCCCC2)CC1 (configuration not stated) [PERHEXILINE] | Not Active | Not Active | Not Active | Not Active | Not Active | Not Active | Not Active | Not Active | Not Active | Not Active |  | 
CC(C)CN(C[C@@H](O)[C@H](Cc1ccccc1)NC(=O)O[C@H]1CCOC1)S(=O)(=O)c1ccc(N)cc1 | Not Active | Not Active | Not Active | Not Active | Not Active | Not Active | Not Active | Not Active | Not Active | Not Active |  | 
